Structures are written as SMILES.

The target of the experiment is T1, EGFR L858R-T790M (Homo sapiens, UniProt P00533, L858R/T790M).
T1 construct: NCI-H1975 (harboring EGFR heterozygous L858R-T790M mutations); host or cells: NCI-H1975
T1 sequence (P00533 25-1210 T790M/L858R): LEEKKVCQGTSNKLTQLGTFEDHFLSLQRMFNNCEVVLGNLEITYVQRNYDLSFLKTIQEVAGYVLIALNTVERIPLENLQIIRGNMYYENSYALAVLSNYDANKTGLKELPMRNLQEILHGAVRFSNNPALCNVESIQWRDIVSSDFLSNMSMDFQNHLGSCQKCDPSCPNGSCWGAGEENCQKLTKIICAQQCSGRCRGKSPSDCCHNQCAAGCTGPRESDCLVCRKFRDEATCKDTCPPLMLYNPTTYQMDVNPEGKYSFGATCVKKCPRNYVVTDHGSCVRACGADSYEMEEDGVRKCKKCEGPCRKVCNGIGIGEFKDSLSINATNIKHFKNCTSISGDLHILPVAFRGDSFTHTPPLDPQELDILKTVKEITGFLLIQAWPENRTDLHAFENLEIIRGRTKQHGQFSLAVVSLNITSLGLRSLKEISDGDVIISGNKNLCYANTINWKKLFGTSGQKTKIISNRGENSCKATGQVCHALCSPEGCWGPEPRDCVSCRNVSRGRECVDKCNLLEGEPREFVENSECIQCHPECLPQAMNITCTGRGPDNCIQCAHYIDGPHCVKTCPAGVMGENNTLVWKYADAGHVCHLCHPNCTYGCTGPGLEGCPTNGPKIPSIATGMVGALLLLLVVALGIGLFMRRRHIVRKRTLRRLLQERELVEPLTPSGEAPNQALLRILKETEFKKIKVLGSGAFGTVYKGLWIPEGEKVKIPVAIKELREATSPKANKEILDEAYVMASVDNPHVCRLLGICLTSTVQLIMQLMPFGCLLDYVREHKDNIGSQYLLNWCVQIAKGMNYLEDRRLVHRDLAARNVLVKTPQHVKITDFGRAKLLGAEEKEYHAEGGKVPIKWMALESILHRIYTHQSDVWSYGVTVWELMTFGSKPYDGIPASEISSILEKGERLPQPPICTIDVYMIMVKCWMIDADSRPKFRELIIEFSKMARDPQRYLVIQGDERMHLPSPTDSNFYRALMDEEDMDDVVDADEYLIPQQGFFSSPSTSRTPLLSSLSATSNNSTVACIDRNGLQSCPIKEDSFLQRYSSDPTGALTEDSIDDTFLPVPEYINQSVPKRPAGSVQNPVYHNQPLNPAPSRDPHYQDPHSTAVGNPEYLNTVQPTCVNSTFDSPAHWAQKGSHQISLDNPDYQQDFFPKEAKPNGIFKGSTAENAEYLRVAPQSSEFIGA
The experiment in a line: EGFR degradation, Total EGFR (L858R-specific) HTRF, NCI-H1975. The format is cell-based. The settings on record: Table 9B; NCI-H1975 cells, 6 hours, Total EGFR HTRF; read-out: H1975 EGFR DC50. In outline:
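HTRF read-outs: pY1068 phospho-EGFR for IC50; total EGFR (pan-EGFR in A431, L858R-specific in mutant lines) for DC50. Compounds were titrated 11 points, half-log, from 10 μM in duplicate onto cells in 10% FBS RPMI, incubated 6 h at 37°C.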
Take `Cn1nc(N2CCC(=O)NC2=O)c2ccc([C@H]3CCN(C(=O)CN4CCC5(CC4)CN(c4ccc(-c6cc(F)c7c(c6)C(=O)N(C(C(=O)Nc6nccs6)c6ncn8c6CCC8)C7)cc4)C5)CC3(F)F)cc21` (stereo partly drawn) [Compound 140, 2-(6,7-dihydro-5H-pyrrolo[1,2-c]imidazol-1-yl)-2-[6-[4-[7-[2-[(4R)-4-[3-(2,4-dioxohexahydropyrimidin-1-yl)-1-methyl-indazol-6-yl]-3,3-difluoro-1-piperidyl]-2-oxo-ethyl]-2,7-diazaspiro[3.5]nonan-2-yl]phenyl]-4-fluoro-1-oxo-isoindolin-2-yl]-N-thiazol-2-yl-acetamide]: the DC50 was < 50 nM.
As for `Cn1nc(N2CCC(=O)NC2=O)c2ccc([C@@H]3CCN(C(=O)CN4CCC5(CC4)CN(c4ccc(-c6cc(F)c7c(c6)C(=O)N(C(C(=O)Nc6nccs6)c6ncn8c6CCC8)C7)cc4)C5)CC3(F)F)cc21` (stereo partly drawn) [Compound 141, 2-(6,7-dihydro-5H-pyrrolo[1,2-c]imidazol-1-yl)-2-[6-[4-[7-[2-[(4S)-4-[3-(2,4-dioxohexahydropyrimidin-1-yl)-1-methyl-indazol-6-yl]-3,3-difluoro-1-piperidyl]-2-oxo-ethyl]-2,7-diazaspiro[3.5]nonan-2-yl]phenyl]-4-fluoro-1-oxo-isoindolin-2-yl]-N-thiazol-2-yl-acetamide], the DC50 fell in the range of 50 to 150 nM.
For the compound `O=C1CC[C@H](Nc2ccc(N3CCC(O)(CC(=O)N4CCC(n5cc(-c6cc(F)c7c(c6)C(=O)N(C(C(=O)Nc6nccs6)c6ncn8c6CCC8)C7)cn5)CC4)CC3)c(F)c2)C(=O)N1` (stereo partly drawn) [Compound 142, 2-(6,7-dihydro-5H-pyrrolo[1,2-c]imidazol-1-yl)-2-[6-[1-[1-[2-[1-[4-[[(3S)-2,6-dioxo-3-piperidyl]amino]-2-fluoro-phenyl]-4-hydroxy-4-piperidyl]acetyl]-4-piperidyl]pyrazol-4-yl]-4-fluoro-1-oxo-isoindolin-2-yl]-N-thiazol-2-yl-acetamide], the DC50 was < 50 nM.
For `Cn1nc(N2CCC(=O)NC2=O)c2ccc([C@H]3CCN(C(=O)CN4CC5(CCN(c6ccc(-c7cc(F)c8c(c7)C(=O)N(C(C(=O)Nc7nccs7)c7ncn9c7CCC9)C8)cc6)CC5)C4)CC3(F)F)cc21` (stereo partly drawn) [Compound 143, 2-(6,7-dihydro-5H-pyrrolo[1,2-c]imidazol-1-yl)-2-[6-[4-[2-[2-[(4R)-4-[3-(2,4-dioxohexahydropyrimidin-1-yl)-1-methyl-indazol-6-yl]-3,3-difluoro-1-piperidyl]-2-oxo-ethyl]-2,7-diazaspiro[3.5]nonan-7-yl]phenyl]-4-fluoro-1-oxo-isoindolin-2-yl]-N-thiazol-2-yl-acetamide] the value was 50 to 150 nM; for `Cn1nc(N2CCC(=O)NC2=O)c2ccc([C@@H]3CCN(C(=O)CN4CC5(CCN(c6ccc(-c7cc(F)c8c(c7)C(=O)N(C(C(=O)Nc7nccs7)c7ncn9c7CCC9)C8)cc6)CC5)C4)CC3(F)F)cc21` (stereo partly drawn) [Compound 144, 2-(6,7-dihydro-5H-pyrrolo[1,2-c]imidazol-1-yl)-2-[6-[4-[2-[2-[(4S)-4-[3-(2,4-dioxohexahydropyrimidin-1-yl)-1-methyl-indazol-6-yl]-3,3-difluoro-1-piperidyl]-2-oxo-ethyl]-2,7-diazaspiro[3.5]nonan-7-yl]phenyl]-4-fluoro-1-oxo-isoindolin-2-yl]-N-thiazol-2-yl-acetamide], < 50 nM; for `Cc1cc(C2CCN(C(=O)CN3CCC(c4ccc(NC5CCC(=O)NC5=O)cc4)CC3)CC2)ccc1-c1cc(F)c2c(c1)C(=O)N(C(C(=O)Nc1nccs1)c1ncn3c1CCC3)C2` (stereo not drawn) [Compound 152, 2-(6,7-dihydro-5H-pyrrolo[1,2-c]imidazol-1-yl)-2-[6-[4-[1-[2-[4-[4-[(2,6-dioxo-3-piperidyl)amino]phenyl]-1-piperidyl]acetyl]-4-piperidyl]-2-methyl-phenyl]-4-fluoro-1-oxo-isoindolin-2-yl]-N-thiazol-2-yl-acetamide], 50 to 150 nM.
Regarding `Cn1nc(N2CCC(=O)NC2=O)c2ccc(C3CCN(CC(=O)N4CC5(C4)CN(c4ccc(-c6cc(F)c7c(c6)C(=O)N(C(C(=O)Nc6ccccn6)c6ncn8c6CCC8)C7)cc4)C5)C4(CC4)C3)cc21` (stereo not drawn) [Compound 153, 2-(6,7-dihydro-5H-pyrrolo[1,2-c]imidazol-1-yl)-2-[6-[4-[2-[2-[7-[3-(2,4-dioxohexahydropyrimidin-1-yl)-1-methyl-indazol-6-yl]-4-azaspiro[2.5]octan-4-yl]acetyl]-2,6-diazaspiro[3.3]heptan-6-yl]phenyl]-4-fluoro-1-oxo-isoindolin-2-yl]-N-(2-pyridyl)acetamide], the DC50 was 50 to 150 nM.
Turning to `Cn1nc(N2CCC(=O)NC2=O)c2ccc(C3CCN(C(=O)C4CC5(C4)CN(c4ccc(-c6cc(F)c7c(c6)C(=O)N(C(C(=O)Nc6nccs6)c6ncn8c6CCC8)C7)cc4)C5)CC3(F)F)cc21` (stereo not drawn) [Compound 155, 2-(6,7-dihydro-5H-pyrrolo[1,2-c]imidazol-1-yl)-2-[6-[4-[6-[4-[3-(2,4-dioxohexahydropyrimidin-1-yl)-1-methyl-indazol-6-yl]-3,3-difluoro-piperidine-1-carbonyl]-2-azaspiro[3.3]heptan-2-yl]phenyl]-4-fluoro-1-oxo-isoindolin-2-yl]-N-thiazol-2-yl-acetamide], the DC50 was < 50 nM.
For `O=C1CCN(c2ccc(N3CCC(O)(CC(=O)N4CC5(C4)CN(c4ccc(-c6cc(F)c7c(c6)C(=O)N(C(C(=O)Nc6nccs6)c6ncn8c6CCC8)C7)cc4)C5)CC3)c(F)c2)C(=O)N1` (stereo not drawn) [Compound 156, 2-(6,7-dihydro-5H-pyrrolo[1,2-c]imidazol-1-yl)-2-[6-[4-[2-[2-[1-[4-(2,4-dioxohexahydropyrimidin-1-yl)-2-fluoro-phenyl]-4-hydroxy-4-piperidyl]acetyl]-2,6-diazaspiro[3.3]heptan-6-yl]phenyl]-4-fluoro-1-oxo-isoindolin-2-yl]-N-thiazol-2-yl-acetamide] the value was 50 to 150 nM; for `O=C1CCC(c2ccc(N3CCC(O)(CC(=O)N4CC5(C4)CN(c4ccc(-c6cc(F)c7c(c6)C(=O)N(C(C(=O)Nc6nccs6)c6ncn8c6CCC8)C7)cc4)C5)CC3)c(F)c2)C(=O)N1` (stereo not drawn) [Compound 157, 2-(6,7-dihydro-5H-pyrrolo[1,2-c]imidazol-1-yl)-2-(6-(4-(6-(2-(1-(4-(2,6-dioxopiperidin-3-yl)-2-fluorophenyl)-4-hydroxypiperidin-4-yl)acetyl)-2,6-diazaspiro[3.3]heptan-2-yl)phenyl)-4-fluoro-1-oxoisoindolin-2-yl)-N-(thiazol-2-yl)acetamide], > 150 nM; for `C[C@@H]1CC(O)(CC(=O)N2CC3(C2)CN(c2ccc(-c4cc(F)c5c(c4)C(=O)N(C(C(=O)Nc4nccs4)c4ncn6c4CCC6)C5)cc2)C3)C[C@H](C)N1c1ccc(NC2CCC(=O)NC2=O)cc1F` (stereo partly drawn) [Compound 161, 2-(6,7-dihydro-5H-pyrrolo[1,2-c]imidazol-1-yl)-2-[6-[4-[2-[2-[(2s,6r)-1-[4-[(2,6-dioxo-3-piperidyl)amino]-2-fluoro-phenyl]-4-hydroxy-2,6-dimethyl-4-piperidyl]acetyl]-2,6-diazaspiro[3.3]heptan-6-yl]phenyl]-4-fluoro-1-oxo-isoindolin-2-yl]-N-thiazol-2-yl-acetamide], < 50 nM.
Next, `NC1(CC(=O)N2CC3(C2)CN(c2ccc(-c4cc(F)c5c(c4)C(=O)N(C(C(=O)Nc4nccs4)c4ncn6c4CCC6)C5)cc2)C3)CCN(c2ccc(NC3CCC(=O)NC3=O)cc2F)CC1` (stereo not drawn) [Compound 162, 2-[6-[4-[2-[2-[4-amino-1-[4-[(2,6-dioxo-3-piperidyl)amino]-2-fluoro-phenyl]-4-piperidyl]acetyl]-2,6-diazaspiro[3.3]heptan-6-yl]phenyl]-4-fluoro-1-oxo-isoindolin-2-yl]-2-(6,7-dihydro-5H-pyrrolo[1,2-c]imidazol-1-yl)-N-thiazol-2-yl-acetamide]: < 50 nM.
Turning to `O=C1CCN(c2ccc(N3CCC(O)(CC(=O)N4CC5(CCN(c6ccc(-c7cc(F)c8c(c7)C(=O)N(C(C(=O)Nc7nccs7)c7ncn9c7CCC9)C8)cc6)CC5)C4)CC3)c(F)c2)C(=O)N1` (stereo not drawn) [Compound 163, 2-(6,7-dihydro-5H-pyrrolo[1,2-c]imidazol-1-yl)-2-[6-[4-[2-[2-[1-[4-(2,4-dioxohexahydropyrimidin-1-yl)-2-fluoro-phenyl]-4-hydroxy-4-piperidyl]acetyl]-2,7-diazaspiro[3.5]nonan-7-yl]phenyl]-4-fluoro-1-oxo-isoindolin-2-yl]-N-thiazol-2-yl-acetamide], the DC50 is < 50 nM.
As for `O=C1CCN(c2ccc(N3CCC(O)(CC(=O)N4CC5(C4)CN(c4ccc(-c6cc(F)c7c(c6)C(=O)N(C(C(=O)Nc6nccs6)c6ncn8c6CCC8)C7)cc4)C5)CC3)c(C(F)(F)F)c2)C(=O)N1` (stereo not drawn) [Compound 168, 2-(6,7-dihydro-5H-pyrrolo[1,2-c]imidazol-1-yl)-2-[6-[4-[2-[2-[1-[4-(2,4-dioxohexahydropyrimidin-1-yl)-2-(trifluoromethyl)phenyl]-4-hydroxy-4-piperidyl]acetyl]-2,6-diazaspiro[3.3]heptan-6-yl]phenyl]-4-fluoro-1-oxo-isoindolin-2-yl]-N-thiazol-2-yl-acetamide], the DC50 lay in the range of 50 to 150 nM.
Take `O=C1CCN(c2cc(Cl)c(N3CCC(O)(CC(=O)N4CC5(C4)CN(c4ccc(-c6cc(F)c7c(c6)C(=O)N(C(C(=O)Nc6nccs6)c6ncn8c6CCC8)C7)cc4)C5)CC3)c(Cl)c2)C(=O)N1` (stereo not drawn) [Compound 169, 2-[6-[4-[2-[2-[1-[2,6-dichloro-4-(2,4-dioxohexahydropyrimidin-1-yl)phenyl]-4-hydroxy-4-piperidyl]acetyl]-2,6-diazaspiro[3.3]heptan-6-yl]phenyl]-4-fluoro-1-oxo-isoindolin-2-yl]-2-(6,7-dihydro-5H-pyrrolo[1,2-c]imidazol-1-yl)-N-thiazol-2-yl-acetamide]: the DC50 was < 50 nM.

The record behind these values is patent publication US20240158418A1 (C4 Therapeutics, Inc., priority 2021, published 2024).
